Data taken from patent US20120277269A1 (priority 2008, published 2012).
Where “and” joins values, the source holds several entries; their conditions need not be identical. Identical values can stand only once. Like-named read-outs stand apart in the source and are kept apart here.

Experiments:
[1] = human, in vivo
Method: Ezekowitz M D, et al., Dabigatran with or without concomitant aspirin compared with warfarin alone in patients with nonvalvular atrial fibrillation (PETRO study), Am. […] The PETRO study is described below.
Peak levels are seen within 2-3 hours of oral administration. […] Steady-state is reached within 2-3 days with a twice daily regimen. […] The remainder undergoes conjugation with glucuronic acid to form acylglucuronides which are excreted primarily in the bile.

[2] = system: patients with atrial fibrillation; conditions: individual patients with LFT abnormalities, one table line per patient (age c0, sex c1); # = with concomitant Bilirubin elevation to >2xULN
Method: The PETRO-Ex study was conducted in 52 centers in the United States, Denmark, The Netherlands, and Sweden.
PETRO-Ex began while the PETRO study was ongoing and investigators were initially kept blinded to patient treatment group until PETRO was completed.
Data were summarized descriptively; no hypothesis was to be tested. Events were analyzed on the basis of the treatment at onset. Incidences were reported as number of patients with events as well as normalized to 100 patient-years on the respective treatment.
Patients who completed PETRO on 50 mg b.i.d. were switched to 150 mg q.d. upon entry in the PETRO-Ex study (N=93 patients). […] Patients who were down titrated to 50 mg q.d. based on a glomerular filtration rate ≦50 mL/min during PETRO were excluded from the long-term trial; patients down-titrated in other dose levels remained on the q.d. treatment at that dose.
The total exposure reflects both trials, PETRO and PETRO-Ex, together.

[3] = system: activated partial thromboplastin time (aPTT), ecarin clotting time, and thrombin clotting time; assay: Anticoagulant pharmacodynamics (clotting times)
[4] = system: patients with atrial fibrillation at risk of stroke; design: Stroke, Ischemic or Unspecified, RR: dose or concentration left out as unconfirmed
Text: Median follow-up was 2.0 years and the primary outcome was stroke or systemic embolism.
Patients were recruited from 951 clinical centers in 44 countries. In brief, patients were eligible if they had atrial fibrillation documented on electrocardiogram at screening or within 6 months; and at least one of the following: prior stroke or transient ischemic attack; left ventricular ejection fraction less than 40%; New York Heart Association heart failure symptoms of Class 2 or greater within 6 months; age at least 75 years; or age at least 65 years with diabetes mellitus, hypertension or coronary artery disease.
The time in therapeutic range was calculated by the method of Rosendaal (Rosendaal F R, et al., A method to determine the optimal intensity of oral anticoagulant therapy, Thromb Haemost, 1993, 69:236-239), excluding INRs from the first week and after discontinuations. […] Concomitant use of aspirin (less than 100 mg/day) or other antiplatelet agents was allowed.
Liver function testing was performed monthly during the first year of follow-up.
The primary study outcome was stroke or systemic embolism. The primary safety outcome was major hemorrhage. Secondary outcomes were stroke, systemic embolism and death. Other outcomes were myocardial infarction, pulmonary embolism, transient ischemic attacks, and hospitalizations. The primary net benefit-risk outcome was the composite of stroke, systemic embolism, pulmonary embolism, myocardial infarction, death or major hemorrhage. Stroke was defined as sudden onset of focal neurological deficit consistent with the territory of a major cerebral artery and categorized as ischemic, hemorrhagic or unspecified. Hemorrhagic transformation of ischemic stroke was not considered as hemorrhagic stroke. Intracranial hemorrhage included hemorrhagic stroke and sub-dural or sub-arachnoid hemorrhage. Systemic embolism was an acute vascular occlusion of an extremity or organ documented by imaging, surgery or autopsy. Major bleeding was defined as a reduction in hemoglobin level of at least […] or transfusion of at least 2 units of blood or symptomatic bleeding in a critical area or organ. Life-threatening bleeding was a subset of major bleeding that included fatal bleeding, symptomatic intracranial bleeding, bleeding with hemoglobin decrease of more than […] or requiring transfusion of more than 4 units of blood or requiring inotropic agents or necessitating surgery. All other bleeding was considered minor.
All primary and secondary outcome events were blindly and doubly adjudicated. An international team of adjudicators reviewed documents in local languages after blinding; or documents were translated by a independent group and blinded centrally. All transient ischemic attacks were reviewed to ensure that strokes had not been missed. To detect possible unreported events, symptom questionnaires were regularly administered to patients, and adverse events and hospitalization reports were scrutinized for unreported primary or secondary outcomes.
If maximum of the two p-values was greater than 0.025, the minimum of the two p-values must be less than 0.0125, one-sided, to claim statistical significance. All analyses were based on intention-to-treat.

[H]/N=C(/N)c1ccc(NCc2nc3cc(C(=O)N(CCC(=O)O)c4ccccn4)ccc3n2C)cc1 [Dabigatran]
Time to steady-state [1]: 2 to 3 days
LFT abnormality ALT/ULN [2]: >5x (4×) and >5x^# (2×) and >3x (5×) and >3x^#
LFT abnormality AST/ULN [2]: >5x^# (4×) and >5x (4×) and >3x (5×)
Effect on aPTT, ecarin clotting time, and thrombin clotting time [3]: dose dependent prolongation
Stroke, Ischemic or Unspecified, RR [4]: 0.68
Stroke, systemic embolism, pulmonary embolism, myocardial infarction death or major bleed (net benefit), RR ([4]; Dabigatran 110 mg vs. Warfarin): 0.92
Stroke, systemic embolism, pulmonary embolism, myocardial infarction death or major bleed (net benefit), RR ([4]; Dabigatran 150 mg vs. 110 mg): 0.98
Stroke, systemic embolism, pulmonary embolism, myocardial infarction death or major bleed (net benefit), RR ([4]; Dabigatran 150 mg vs. Warfarin): 0.90
Stroke, RR ([4]; Dabigatran 180 mg vs. 110 mg): 0.70
Hepatotoxicity in serial measurement of liver function tests ([4]; human, in vivo): no evidence of hepatotoxicity
